Measured values: ChEMBL document CHEMBL1122949, “Pepstatin-derived inhibitors of aspartic proteinases. A close look at an apparent transition-state analogue inhibitor” (J Med Chem, 1985)
Numbered stars: 1 amine (or outer) side, 2 acyl side, 3 side chain; on linkers, the order of the positions; unused ones are H or OH. Square brackets hold non-standard residues; d marks the D form. Peptide text beside a SMILES is read from it. * marks the point of attachment. ξ: configuration not given here. X1 = CC[C@H](C)[C@H](NC(=O)[C@H](CC(C)C)NC[C@H](CC(C)C)N*)C(=O)N[C@@H](Cc1c[nH]cn1)C(=O)O; LeuΨ(ξCHOHCH2)Val = CC(C)C[C@H](N[*:1])C(O)C[C@H](C(=O)[*:2])C(C)C; Sta(3ξ) = CC(C)C[C@H](N[*:1])C(O)CC(=O)[*:2]; Isovaleryl = CC(C)CC(=O)*; Boc = CC(C)(C)OC(=O)*

Tests used:
Pepsin A = Pepsin A (Sus scrofa, UniProt P00791); assay: Inhibition of porcine pepsin
[1] = Compound was evaluated for the ability to inhibit penicillopepsin.
Renin = target: T1, Renin (Homo sapiens, UniProt P00797); assay: Compound was evaluated for the ability to inhibit human plasma renin.; type: cell-free
T1 sequence (P00797 whole entry): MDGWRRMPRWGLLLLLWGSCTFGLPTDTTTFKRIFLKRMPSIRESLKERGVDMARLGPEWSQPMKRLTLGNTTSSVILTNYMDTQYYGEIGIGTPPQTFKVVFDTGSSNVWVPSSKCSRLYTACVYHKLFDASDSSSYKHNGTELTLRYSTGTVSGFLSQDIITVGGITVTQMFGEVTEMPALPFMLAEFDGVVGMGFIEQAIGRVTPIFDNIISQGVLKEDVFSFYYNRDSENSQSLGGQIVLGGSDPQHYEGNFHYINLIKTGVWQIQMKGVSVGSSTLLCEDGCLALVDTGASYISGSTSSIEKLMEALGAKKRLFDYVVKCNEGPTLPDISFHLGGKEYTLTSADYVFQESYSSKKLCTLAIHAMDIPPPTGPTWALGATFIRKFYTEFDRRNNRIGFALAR

Chain of Pepsin A (P00791 whole entry): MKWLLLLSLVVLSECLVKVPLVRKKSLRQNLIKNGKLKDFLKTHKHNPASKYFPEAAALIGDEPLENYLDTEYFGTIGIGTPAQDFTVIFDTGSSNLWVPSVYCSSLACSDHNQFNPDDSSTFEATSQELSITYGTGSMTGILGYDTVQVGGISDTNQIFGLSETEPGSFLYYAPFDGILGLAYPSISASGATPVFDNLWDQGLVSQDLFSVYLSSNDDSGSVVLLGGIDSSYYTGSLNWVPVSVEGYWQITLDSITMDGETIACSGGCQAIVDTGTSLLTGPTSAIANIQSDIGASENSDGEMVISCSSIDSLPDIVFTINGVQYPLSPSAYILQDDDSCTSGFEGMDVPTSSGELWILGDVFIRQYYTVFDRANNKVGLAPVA

Compound | Ki (Pepsin A) [nM] | Ki [1] [nM] | IC50 (Renin) [nM]
CC[C@H](C)[C@H](NC(=O)[C@@H](CC(O)[C@H](CC(C)C)NC(=O)[C@H](Cc1cnc[nH]1)NC(=O)[C@H](Cc1ccccc1)NC(=O)[C@@H]1CCCN1C(=O)[C@H](Cc1cnc[nH]1)NC(=O)OC(C)(C)C)C(C)C)C(=O)N[C@@H](Cc1cnc[nH]1)C(=O)O (some centres not stated) (Boc-HPFH[LeuΨ(ξCHOHCH2)Val]IH-OH) | – | – | 0.7
CC[C@H](C)[C@H](NC(=O)CC(O)[C@H](CC(C)C)NC(=O)[C@H](Cc1c[nH]cn1)NC(=O)[C@H](Cc1ccccc1)NC(=O)[C@@H]1CCCN1C(=O)[C@H](Cc1c[nH]cn1)NC(=O)CC(C)C)C(=O)N[C@@H](Cc1ccccc1)C(N)=O (some centres not stated) (Isovaleryl-HPFH[Sta(3ξ)]IF-NH2) | – | – | 1.9
CC(C)CCC(=O)NC(=O)[C@@H](C)NC(=O)CC(=O)[C@H](CC(C)C)NC(=O)[C@@H](NC(=O)CC(C)C)C(C)C | 56 | – | –
CC[C@H](C)[C@H](NC(=O)CC(O)[C@H](CC(C)C)NC(=O)[C@H](Cc1c[nH]cn1)NC(=O)[C@H](Cc1ccccc1)NC(=O)[C@@H]1CCCN1C(=O)[C@H](Cc1c[nH]cn1)NC(=O)CC(C)C)C(=O)N[C@@H](Cc1ccccc1)C(=O)OC (some centres not stated) (Isovaleryl-HPFH[Sta(3ξ)]IF-OMe) | – | – | 0.6
CC[C@H](C)[C@H](NC(=O)[C@H](CC(C)C)NC[C@H](CC(C)C)NC(=O)C(Cc1c[nH]cn1)NC(=O)[C@H](Cc1ccccc1)NC(=O)[C@@H]1CCCN1C(=O)C(N)Cc1c[nH]cn1)C(=O)NC(Cc1c[nH]cn1)C(=O)O (stereo in doubt) | – | – | 1000
CC[C@H](C)[C@H](NC(=O)[C@H](Cc1ccccc1)NC(=O)[C@H](Cc1ccccc1)NC(=O)[C@H](Cc1c[nH]cn1)NC(=O)[C@H](Cc1ccccc1)NC(=O)[C@@H]1CCCN1C(=O)[C@H](Cc1c[nH]cn1)NC(=O)[C@@H]1CCCN1)C(=O)N[C@@H](Cc1c[nH]cn1)C(=O)O | – | – | 7000
CC(C)CNC(=O)[C@H](C)NC(=O)[C@@H](C)CC(O)[C@@H](CC(C)C)NC(=O)[C@H](NC(=O)CC(C)C)C(C)C (stereo in doubt; 16b(4R)) | 700 | – | –
CC(C)CC(=O)N[C@H](C(=O)N[C@H](C(=O)N[C@H](CCC(=O)NC(C)C(=O)N[C@H](CCC(=O)O)CC(C)C)CC(C)C)C(C)C)C(C)C (some centres not stated) | 210 | – | –
CC(C)CNC(=O)[C@@H](C)NC(=O)[C@@H](C)CC(=O)[C@H](CC(C)C)NC(=O)[C@@H](NC(=O)CC(C)C)C(C)C | 110 | – | –
CC(C)CCC(=O)NC(=O)C(C)NC(=O)CC(O)[C@H](CC(C)C)NC(=O)[C@@H](NC(=O)[C@@H](NC(=O)CC(C)C)C(C)C)C(C)C (some centres not stated) | 2000 | – | –
CC(C)CCC(=O)NC(=O)[C@H](C)NC(=O)CC(O)[C@@H](CC(C)C)N(C)C(=O)[C@H](NC(=O)[C@@H](NC(=O)CC(C)C)C(C)C)C(C)C (stereo in doubt; 13a(3s)) | 1200 | > 5000 | –
CC[C@H](C)[C@H](NC(=O)[C@H](CC(C)C)NC[C@H](CC(C)C)NC(=O)[C@H](Cc1c[nH]cn1)NC(=O)[C@H](Cc1ccccc1)NC(=O)[C@@H]1CCCN1C(=O)[C@H](Cc1c[nH]cn1)NC(=O)[C@@H]1CCCN1)C(=O)N[C@@H](Cc1c[nH]cn1)C(=O)O (H-PHPFH-X1) | – | – | 10

The remaining molecules from weak to strong by Ki (Pepsin A), led by results:

Ki (Pepsin A) [nM] | Ki [1] [nM] | IC50 (Renin) [nM] | Compound
56 | – | – | CC(C)CCC(=O)NC(=O)CNC(=O)CC(O)[C@@H](CC(C)C)NC(=O)[C@H](NC(=O)CC(C)C)C(C)C (some centres not stated)
53 | – | – | CC(C)CNC(=O)CNC(=O)[C@@H](C)CC(O)[C@@H](CC(C)C)NC(=O)[C@H](NC(=O)CC(C)C)C(C)C (some centres not stated)
50 | – | – | CC(C)CCC(=O)NC(=O)[C@H](C)NC(=O)CCC(O)[C@@H](CC(C)C)NC(=O)[C@H](NC(=O)CC(C)C)C(C)C (some centres not stated)
27 | – | – | CC(C)CCC(=O)NC(=O)[C@@H](C)CC(O)[C@@H](CC(C)C)NC(=O)[C@H](NC(=O)CC(C)C)C(C)C (some centres not stated)
10 | 47 | – | CCOC(=O)CC(O)[C@H](CC(C)C)NC(=O)[C@@H](NC(=O)[C@@H](NC(=O)CC(C)C)C(C)C)C(C)C (some centres not stated)
10 | 85 | – | CC(C)CCC(=O)NC(=O)[C@H](C)NC(=O)CC(=O)[C@H](CC(C)C)NC(=O)[C@@H](NC(=O)[C@@H](NC(=O)CC(C)C)C(C)C)C(C)C
3 | 7600 | – | CC(C)CCC(=O)NC(=O)[C@@H](C)NC(=O)CC(O)[C@H](CC(C)C)NC(=O)[C@@H](NC(=O)CC(C)C)C(C)C (some centres not stated)
3 | – | – | CC(C)CNC(=O)[C@H](C)NC(=O)[C@@H](C)CC(O)[C@@H](CC(C)C)NC(=O)[C@H](NC(=O)CC(C)C)C(C)C (stereo in doubt; 16a(4S))
0.9 | – | – | CC(C)CCC(=O)NC(=O)[C@H](C)NC(=O)CC(O)[C@@H](Cc1ccccc1)NC(=O)[C@H](NC(=O)CC(C)C)C(C)C (some centres not stated)
0.056 | 0.15 | – | CC(C)CC(=O)N[C@H](C(=O)N[C@H](C(=O)N[C@@H](CC(C)C)[C@@H](O)CC(=O)N[C@@H](C)C(=O)N[C@@H](CC(C)C)[C@@H](O)CC(=O)O)C(C)C)C(C)C [PEPSTATIN]
